# Patent US20090311344A1, “Dosing Regimen” (priority 2008, published 2009)
# Assay: Multiple dose study in cancer subjects: treatment-emergent (serious) adverse events
# Method: 46 subjects with cancer receiving platinum-based therapies were enrolled into 3 cohorts (N=16 in Cohort 1, 14 in Cohort 2, and 16 in Cohort 3). The subjects received the TPO mimetic peptide compound or placebo within 2 hours prior to the platinum-based chemotherapy on Day 1 of the first 2 cycles with a 21-day interval between each cycle. In addition to the Day 1 administration, gemcitabine administration was permitted on Day 8 of each cycle. Other chemotherapy medications were limited to dosing on Day 1 of each cycle only. Subjects were followed up for a total of 4 cycles of chemotherapy. Chemotherapy regimen continued beyond the first 4 cycles as per standard of care therapy. In the first cohort, 12 subjects received 1.5 μg/kg the TPO mimetic peptide compound and 4 subjects received placebo. In the second cohort 10 subjects received 3.0 μg/kg the TPO mimetic peptide compound and 4 subjects received placebo. In the third cohort, 12 subjects received 2.25 μg/kg the TPO mimetic peptide compound and 4 subjects received placebo. […] Therefore, a third cohort at a lower dose (2.25 μg/kg) was added to collect additional safety, tolerability, PD, and PK data.
substance,measurement,setting,value
Methoxypolyethyleneglycol20000-propionyl-L-Isoleucyl-L-Glutamyl-Glycyl-L-Prolyl-L-Threonyl-L-Leucyl-L-Arginyl-L-Glutaminyl-L-2-Naphthylalanyl-L-Leucyl-L-Alanyl-L-Alanyl-L-Arginyl-Sarcosyl-Ne-(methoxypolyethyleneglycol20000-propionyl-L-Isoleucyl-L-Glutamyl-Glycyl-L-Prolyl-L-Threonyl-L-Leucyl-L-Arginyl-L-Glutaminyl-L-2-Naphthylalanyl-L-Leucyl-L-Alanyl-L-Alanyl-L-Arginyl-Sarcosyl-)-Lysinamide [TPO mimetic peptide compound],Adverse event: Musculoskeletal and connective tissue disorders,"2.25 ug/kg, n of N = 12",1
same,Adverse event: Nausea,"2.25 ug/kg, n of N = 12",2
same,"Adverse event: Neoplasms benign, malignant and unspecified (incl cysts and polyps)","2.25 ug/kg, n of N = 12",0
same,Adverse event: Nervous system disorders,"2.25 ug/kg, n of N = 12",3
same,Adverse event: Neuropathy peripheral,"2.25 ug/kg, n of N = 12",0
same,Adverse event: Neutropenia,"2.25 ug/kg, n of N = 12",4
same,Adverse event: Oedema,"2.25 ug/kg, n of N = 12",1
same,Adverse event: Oedema peripheral,"2.25 ug/kg, n of N = 12",0
same,Adverse event: Pain,"2.25 ug/kg, n of N = 12",0
same,Adverse event: Pain in extremity,"2.25 ug/kg, n of N = 12",1
same,Adverse event: Paraesthesia,"2.25 ug/kg, n of N = 12",0
same,Adverse event: Peripheral motor neuropathy,"2.25 ug/kg, n of N = 12",0
same,Adverse event: Peripheral sensory neuropathy,"2.25 ug/kg, n of N = 12",0
same,Adverse event: Platelet count decreased,"2.25 ug/kg, n of N = 12",0
same,Adverse event: Psychiatric disorders,"2.25 ug/kg, n of N = 12",2
same,Adverse event: Pyrexia,"2.25 ug/kg, n of N = 12",3
same,Adverse event: Rash,"2.25 ug/kg, n of N = 12",0
same,Adverse event: Renal and urinary disorders,"2.25 ug/kg, n of N = 12",1
same,Adverse event: Respiratory failure,"2.25 ug/kg, n of N = 12",0
same,"Adverse event: Respiratory, thoracic and mediastinal disorders","2.25 ug/kg, n of N = 12",3
same,Adverse event: Skin and subcutaneous tissue disorders,"2.25 ug/kg, n of N = 12",3
same,Adverse event: Stomatitis,"2.25 ug/kg, n of N = 12",0
same,Adverse event: Tachycardia,"2.25 ug/kg, n of N = 12",0
same,Adverse event: Thrombocythaemia,"2.25 ug/kg, n of N = 12",0
same,Adverse event: Thrombocytopenia,"2.25 ug/kg, n of N = 12",0
same,Adverse event: Tinnitus,"2.25 ug/kg, n of N = 12",0
same,Adverse event: Vascular disorders,"2.25 ug/kg, n of N = 12",2
same,Adverse event: Vomiting,"2.25 ug/kg, n of N = 12",6
same,Adverse event: Weight decreased,"2.25 ug/kg, n of N = 12",0
same,Serious adverse event: Abdominal pain,"2.25 ug/kg, n of N = 12",0
same,Serious adverse event: Acute myocardial infarction,"2.25 ug/kg, n of N = 12",0
same,Serious adverse event: Anorexia,"2.25 ug/kg, n of N = 12",0
same,Serious adverse event: Atrial fibrillation,"2.25 ug/kg, n of N = 12",0
same,Serious adverse event: Blood and lymphatic system disorders,"2.25 ug/kg, n of N = 12",1
same,Serious adverse event: Blood creatinine increased,"2.25 ug/kg, n of N = 12",1
same,Serious adverse event: Cardiac disorders,"2.25 ug/kg, n of N = 12",0
same,Serious adverse event: Cardiac failure,"2.25 ug/kg, n of N = 12",0
same,Serious adverse event: Dehydration,"2.25 ug/kg, n of N = 12",1
same,Serious adverse event: Dyspnoea,"2.25 ug/kg, n of N = 12",1
same,Serious adverse event: Fatigue,"2.25 ug/kg, n of N = 12",0
same,Serious adverse event: Febrile neutropenia,"2.25 ug/kg, n of N = 12",1
same,Serious adverse event: Gastrointestinal disorders,"2.25 ug/kg, n of N = 12",1
same,Serious adverse event: General disorders and administration site conditions,"2.25 ug/kg, n of N = 12",0
same,Serious adverse event: Hyponatraemia,"2.25 ug/kg, n of N = 12",2
same,Serious adverse event: Investigations,"2.25 ug/kg, n of N = 12",1
same,Serious adverse event: Lung abscess,"2.25 ug/kg, n of N = 12",0
same,Serious adverse event: Metabolism and nutrition disorders,"2.25 ug/kg, n of N = 12",2
same,Serious adverse event: Nausea,"2.25 ug/kg, n of N = 12",0
same,Serious adverse event: Neutropenia,"2.25 ug/kg, n of N = 12",0
same,Serious adverse event: Pain,"2.25 ug/kg, n of N = 12",0
same,Serious adverse event: Pyrexia,"2.25 ug/kg, n of N = 12",0
same,Serious adverse event: Respiratory failure,"2.25 ug/kg, n of N = 12",0
same,"Serious adverse event: Respiratory, thoracic and mediastinal disorders","2.25 ug/kg, n of N = 12",1
same,Serious adverse event: Thrombocythaemia,"2.25 ug/kg, n of N = 12",0
same,Serious adverse event: Thrombocytopenia,"2.25 ug/kg, n of N = 12",0
same,Serious adverse event: Vomiting,"2.25 ug/kg, n of N = 12",1
same,Total no. subjects WITH ADVERSE EVENTS,"2.25 ug/kg, n of N = 12",10
same,Total no. subjects WITH SERIOUS ADVERSE EVENTS,"2.25 ug/kg, n of N = 12",3
same,Adverse event: Abdominal pain,"3.0 ug/kg, n of N = 10",2
same,Adverse event: Acute myocardial infarction,"3.0 ug/kg, n of N = 10",0
same,Adverse event: Alanine aminotransferase increased,"3.0 ug/kg, n of N = 10",1
same,Adverse event: Alopecia,"3.0 ug/kg, n of N = 10",2
same,Adverse event: Anemia,"3.0 ug/kg, n of N = 10",1
same,Adverse event: Anorexia,"3.0 ug/kg, n of N = 10",2
same,Adverse event: Anxiety,"3.0 ug/kg, n of N = 10",0
same,Adverse event: Arthralgia,"3.0 ug/kg, n of N = 10",1
same,Adverse event: Aspartate aminotransferase increased,"3.0 ug/kg, n of N = 10",1
same,Adverse event: Atrial fibrillation,"3.0 ug/kg, n of N = 10",0
same,Adverse event: Azotaemia,"3.0 ug/kg, n of N = 10",0
same,Adverse event: Blood and lymphatic system disorders,"3.0 ug/kg, n of N = 10",3
same,Adverse event: Blood creatinine increased,"3.0 ug/kg, n of N = 10",1
same,Adverse event: C-reactive protein increased,"3.0 ug/kg, n of N = 10",1
same,Adverse event: Cancer pain,"3.0 ug/kg, n of N = 10",0
same,Adverse event: Cardiac disorders,"3.0 ug/kg, n of N = 10",0
same,Adverse event: Cardiac failure,"3.0 ug/kg, n of N = 10",0
same,Adverse event: Chills,"3.0 ug/kg, n of N = 10",0
same,Adverse event: Confusional state,"3.0 ug/kg, n of N = 10",0
same,Adverse event: Constipation,"3.0 ug/kg, n of N = 10",4
same,Adverse event: Cough,"3.0 ug/kg, n of N = 10",0
same,Adverse event: Dehydration,"3.0 ug/kg, n of N = 10",1
same,Adverse event: Dermatitis acneiform,"3.0 ug/kg, n of N = 10",0
same,Adverse event: Diabetes mellitus non-insulin-dependent,"3.0 ug/kg, n of N = 10",0
same,Adverse event: Diarrhea,"3.0 ug/kg, n of N = 10",1
same,Adverse event: Dizziness,"3.0 ug/kg, n of N = 10",0
same,Adverse event: Dry skin,"3.0 ug/kg, n of N = 10",1
same,Adverse event: Dyspepsia,"3.0 ug/kg, n of N = 10",0
same,Adverse event: Dyspnoea,"3.0 ug/kg, n of N = 10",0
same,Adverse event: Ear and labyrinth disorders,"3.0 ug/kg, n of N = 10",1
same,Adverse event: Epistaxis,"3.0 ug/kg, n of N = 10",1
same,Adverse event: Eructation,"3.0 ug/kg, n of N = 10",0
